From US10570168B2, “2′ and/or 5′ amino-acid ester phosphoramidate 3′-deoxy adenosine derivatives as anti- cancer compounds” (NuCana plc, priority 2014, dated 2020) come the findings set out here.

What is called IC50 is the concentration that inhibits the measured activity by half.

One test relates to K562 (TdT negative). Put plainly: ATP (ViaLight plus) cytotoxicity assay. In kind it is cell-based, Human. The settings on record: Homo sapiens, K562, 72 h. Here is the method: (§1) Certain compounds of the invention were subjected to further studies to test the cytotoxic activity of certain compounds of the invention and also to measure their activity against 4 haematological cancer cell lines • TdT positive CEM (Human ALL) • TdT negative K562 (Human CML) • TdT negative H1-60 (Human ANLL) • RL (CRL-2261) non-HD lymphoma • The concentrations of the active metabolite dATP (Cordycepin triphosphate) in these cell lines was also measured. • The cytotoxic activity and the intracellular 3′-dATP concentrations were also studied in the presence of hENT1, Adenosine Kinase (AK) and Adenosine Deaminase pharmacological inhibitors in CEM and RL cancer cell lines. Said inhibitors that mimic known cancer resistance mechanisms. Methods Cell Culture
(§2) HL-60 (ATCC® CCL-240™), K562 (ATCC® CCL-243™), CCRF-CEM (ATCC® CRM-CCL-119™) and RL (ATCC® CRL-2261™) leukaemia cell lines, obtained from the American Type Culture Collection (ATCC), Middlesex. HL-60 and K562 cell lines are deoxynucleotidyl transferase-negative (TdT-ve), whereas CCRF-CEM cell line is TdT+ve.
(§3) HL-60, K562, CCRF-CEM and RL cell lines were cultured in RPMI-1640 medium (Sigma Aldrich, UK), which were supplemented with 10% Fetal Bovine Serum (FBS) (PAA Laboratories), 1% amphotericin B (5.5 ml) and 1% penicillin/streptomycin (5.5 ml) (PAA Laboratories) and grown in flasks at 37° C. incubator with 5% CO2.
(§4) The amount of ATP was used as a measurement of cell number and cell viability. ATP ViaLight™ plus assay kit (Lonza, USA: Product No. LT07-121) to detect ATP in cells treated in luminescence compatible 96 well plates (initial concentration of cells was 1×10^4 cells/well) with cordycepin and ProTides at concentrations of: 0, 0.1, 0.5, 1, 5 and 10 μM, followed by incubation for 72 hours at 37° C. incubator with 5% CO2. For inhibitor studies, 10 μM of NBTI or 1 μM EHNA or A-134974 was added and left for 5 minutes before adding the drugs (see section 5 for inhibitor details).
(§5) After incubation, 50 μl of cell lysis reagent was added to the 96 well plates to release the intracellular ATP, followed by 100 μl of ATP monitoring reagent (AMR). The luminescent values of each well were determined using FLUOstar OPTIMA microplate reader (BMG Labtech) which convert ATP into light by using luciferase enzyme. Therefore, the amount of luminescence produced was directly proportional to the amount of ATP.
(§6) The dose-response curves of cytotoxicity of the drugs was determined using non-linear regression analysis of percentage cell viability versus concentration and EC50 values were obtained. The intracellular assay was conducted in five replicates for each condition. Intracellular assay was determined using paired t test (two-tailed) analysis of 3′ATP/ATP concentration and p-values were obtained. For all the analysis, Prism Software program (GraphPad Software) was used and Microsoft Powerpoint® 2013 was used to plot the results.

For a further test, the system named is HL-60 (TdT negative). The experiment in a line: ATP (ViaLight plus) cytotoxicity assay. Format: cell-based, Human. The settings on record: Homo sapiens, HL-60, 72 h. The method, then: as §1, §2, §3, §4, §5, §6
The next test concerns MCF-7. Put plainly: CellTiterGlo viability assay, initial screening. Format: cell-based. Conditions: Homo sapiens, MCF7, 72 h, read-out: IC50 (relative IC50). The method, then:
(§7) In vitro viability assays were performed to assess the effects of compounds on cell viability in 7 selected cell lines over 72 hr using the CellTiterGlo (CTG, Promega-G7573) assay. The tests were performed in duplicates with treatment of compounds at 9 points, 3.16 folds titration in 96 well plates over ˜72 hr. The compound starting concentrations were […]. Cell viability assay using CellTiterGlo in 96-well plate were performed. The compound treatment was 72 hrs, under standard growth conditions, and in duplicate. Compounds were dissolved to 40 mM with thawed […]. Compounds were serially diluted at 3.16 fold in thawed DMSO, and warmed to 37° C. before being dissolved in media (2 μl+200 μl). After compounds were dissolved in media (media was also warmed to 37° C.). Media containing compounds were warmed to 37° C. in incubator and then compounds in media were added to cell plates (50 μl+50 μl), in duplicates. The compounds final concentrations were from […] to 19.9 nM. All compound solubilities were checked and recorded again, then the plates were transferred to CO2 tissue culture incubator immediately and incubated for 3 days. DMSO final concentration is 0.5%.
(In general: Cellular ATP, detected with luciferase, serves as a proxy for viable cell number.)

Test [1] concerns HepG2. Put plainly: CellTiterGlo viability assay, initial screening. Format: cell-based. The settings on record: Homo sapiens, HepG2, 72 h, read-out: IC50 (relative IC50). Here is the method: as §7
For a further test, the system named is CCRF-CEM. Put plainly: CellTiterGlo viability assay, initial screening. Conditions: Homo sapiens, 72 h, read-out: IC50 (relative IC50). Format: cell-based. The method, then: as §7
Another test deals with MOLT-4. Put plainly: CellTiterGlo viability assay, initial screening. The settings on record: Homo sapiens, MOLT-4, 72 h, read-out: IC50 (relative IC50). In kind it is cell-based. The method, then: as §7
Test [2] has as its system HL-60. The experiment in a line: CellTiterGlo viability assay, initial screening. Format: cell-based. Conditions: Homo sapiens, HL-60, 72 h, read-out: IC50 (relative IC50). The method, then:
as §7

The subject of test [3] is KG-1. The experiment in a line: CellTiterGlo viability assay, initial screening. In kind it is cell-based. The settings on record: Homo sapiens, KG-1, 72 h, read-out: IC50 (relative IC50). Here is the method: as §7
Test [4] deals with K562. The experiment in a line: CellTiterGlo viability assay, initial screening. The settings on record: Homo sapiens, K562, 72 h, read-out: IC50 (relative IC50). In kind it is cell-based. The method, then:
as §7

For a further test, the system named is RL (CRL-2261). Put plainly: ATP (ViaLight plus) cytotoxicity assay. Format: cell-based. The settings on record: 72 h, CRL (RL, CRL-2261). The method, then:
as §1, §2, §3, §4, §5
(§8) Cell lines were treated in the same way as described above but before treatment with drugs, a number of inhibitors were added: • 1) Nitrobenzylthioinosine (NBTI) (Sigma-Aldrich, St. Louis, Mo., product # N2255) blocks nucleoside transporters • 2) EHNA hydrochloride (Sigma-Aldrich, St. Louis, Mo., product # E114) blocks adenosine deaminase • 3) Adenosine kinase inhibitor A-134974 dihydrochloride hydrate (Sigma-Aldrich, St. Louis, Mo., product # A2846): blocks adenosine kinase
as §6

The subject of test [5] is CCRF-CEM (TdT positive CEM). Put plainly: ATP (ViaLight plus) cytotoxicity assay. The settings on record: CEM (TdT+ve). Format: cell-based, Human. The method, then: as §1, §2, §3, §4, §5, §8, §6
A further test deals with MiaPaCa-2. Put plainly: Solid tumour and haematological malignancy assay (CellTiterGlo). In kind it is cell-based. Conditions: Homo sapiens, MIA PaCa-2, 72 h. The method, then: (§9) In vitro viability assay were performed to assess the effects of compounds on cell viability in selected cell lines over 72 hr using the CellTiterGlo (CTG, Promega-G7573) assay. […] Cell viability assay using CellTiterGlo in 96-well plate were performed. Compound treatment 72 hrs, standard growth conditions, duplicates. Compounds were dissolved to 40 mM with thawed 100%. […] After compounds were dissolved in media, media containing compounds were warmed to 37° C. in incubator and then compounds in media were added to cell plates ([…]) in duplicates. […] All compound solubilities were checked and recorded again, then the plates were transferred to CO2 tissue culture incubator immediately and incubated for 3 days. DMSO final concentration is 0.5%.

The subject of test [6] is HepG2. The test is described as above. Format: cell-based. The settings on record: Homo sapiens, HepG2, 72 h. The method, then:
as §9

In a further test the test system is MCF7. The description is as above. Format: cell-based. The settings on record: Homo sapiens, MCF7, 72 h. The method, then:
as §9

The test system of a further test is CCRFCEM. Described as above. Format: cell-based. The settings on record: Homo sapiens, CCRF-CEM, 72 h. The method, then: as §9
Another test relates to HEL92.1.7. The description is as above. Format: cell-based. Conditions: Homo sapiens, HEL 92.1.7, 72 h. The method, then:
as §9

For test [7], the system named is HL-60. Described as above. The settings on record: Homo sapiens, HL-60, 72 h. Format: cell-based. Here is the method: as §9
In test [8] the test system is KG-1. The description is as above. In kind it is cell-based. Conditions: Homo sapiens, KG-1, 72 h. The method, then:
as §9

A further test concerns HT29. Described as above. Format: cell-based. Conditions: Homo sapiens, HT-29, 72 h. The method, then:
as §9

In test [9] the test system is K562. The test is described as above. Format: cell-based. Conditions: Homo sapiens, K562, 72 h. The method, then:
as §9

For test [10], the system named is leukaemic stem cell (LSC) compartment within the KG1a cell line. Put plainly: Immunophenotypic identification of the leukaemic stem cell compartment. In kind it is cell-based. The settings on record: 72 h, for compound A at 1 mM and above. Here is the method:
KG1a cells were cultured for 72 h in the presence of a wide range of concentrations of each compound assayed. Cells were then harvested and labelled with a cocktail of anti-lineage antibodies (PE-cy7), anti-CD34 (FITC), anti-CD38 (PE) and anti-CD123 (PERCP cy5). The sub-population expressing a LSC phenotype were subsequently identified and were expressed as a percentage of all viable cells left in the culture. The percentages of stem cells remaining were then plotted on a dose-response graph and the effects of the compounds were compared with each other, and with the parent nucleoside.
The data obtained in these experiments were evaluated using one way ANOVA. All data was confirmed as Gaussian or a Gaussian approximation using the omnibus K2 test. LD50 values were calculated from the non-linear regression and line of best-fit analysis of the sigmoidal dose-response curves. All statistical analyses were performed using Graphpad Prism 6.0 software (Graphpad Software Inc., San Diego, Calif.).

For the compound `CCCCCOC(=O)[C@H](CC(C)C)NP(=O)(OC[C@@H]1C[C@@H](O)[C@H](n2cnc3c(N)ncnc32)O1)Oc1cccc2ccccc12` (mixture of isomers) [D, (2S)-pentyl 2-(((((2S,4R,5R)-5-(6-amino-9H-purin-9-yl)-4-hydroxytetrahydrofuran-2-yl)methoxy)(naphthalen-1-yloxy)phosphoryl)amino)-4-methylpentanoate], the IC50 in the test on K562 (TdT negative) was 4.2 µM; in the test on HL-60 (TdT negative) it was 5.4 µM; in the test on MCF-7 it was 0.1 to 5 µM; in the test on HepG2 [1] it was 5 to 15 µM; in the test on CCRF-CEM, 5 to 15 µM; with MOLT-4, 0.1 to 5 µM. Also, the IC50 is 5 to 15 µM with HL-60 [2]; 5 to 15 µM in the test on KG-1 [3]; 5 to 15 µM in the test on K562 [4]; 4.8 µM in the test on RL (CRL-2261); 6.1 µM in test [5] (Homo sapiens, CCRF-CEM, 72 h, 72 hours). Further, the “(FD) fold difference compared to Cordycepin = Cordycepin IC50/ProTide IC50” value in test [5] was “(3)”.

Turning to `C[C@H](NP(=O)(OC[C@@H]1C[C@@H](O)[C@H](n2cnc3c(N)nc(F)nc32)O1)Oc1ccccc1)C(=O)OCc1ccccc1` (mixture of isomers) [P, (2S)-benzyl 2-(((((2S,4R,5R)-5-(6-amino-2-fluoro-9H-purin-9-yl)-4-hydroxytetrahydrofuran-2-yl)methoxy)(phenoxy)phosphoryl)amino)propanoate], the IC50 lay within 0.1 to 5 µM with MiaPaCa-2 (read-out: IC50 (absolute IC50)); 5 to 15 µM in the test on HepG2 [6] (read-out: IC50 (absolute IC50)); 0.1 to 5 µM in the test with MCF7 (read-out: IC50 (absolute IC50)); 0.1 to 5 µM in the test on CCRFCEM (read-out: IC50 (absolute IC50)); 0.1 to 5 µM with HEL92.1.7 (read-out: IC50 (absolute IC50)); 0.1 to 5 µM in the test on HL-60 [7] (read-out: IC50 (absolute IC50)). In addition, the values for the IC50 in the test on KG-1 [8] (read-out: IC50 (absolute IC50)), in the test on HT29 (read-out: IC50 (absolute IC50)) and with K562 [9] (read-out: IC50 (absolute IC50)) were 0.1 to 5 µM, 5 to 15 µM and 0.1 to 5 µM, respectively. Besides, the Emax in the test on MiaPaCa-2 (read-out: MI %) turned out to be 98%; in the test with HepG2 [6] (read-out: MI %) it was 74%; with MCF7 (read-out: MI %) it was 95%; with CCRFCEM (read-out: MI %), 99%; in the test on HEL92.1.7 (read-out: MI %), 99%; in the test with HL-60 [7] (read-out: MI %), 100%. Moreover, the results for the Emax in the test on KG-1 [8] (read-out: MI %), in the test with HT29 (read-out: MI %) and in the test on K562 [9] (read-out: MI %) were 97%, 87% and 97%, respectively. Besides, in test [10], the “LSC targeting compared with the parent nucleoside” value is listed as “significantly improved when compared with the parental nucleoside”.

As to `C[C@H](NP(=O)(OC[C@@H]1C[C@@H](OP(=O)(N[C@@H](C)C(=O)OCc2ccccc2)Oc2ccccc2)[C@H](n2cnc3c(N)ncnc32)O1)Oc1ccccc1)C(=O)OCc1ccccc1` (stereo partly drawn) [H, Benzyl 2-(((((2S,4R,5R)-5-(6-amino-9H-purin-9-yl)-4-((((1-(benzyloxy)-1-oxopropan-2-yl)amino)(phenoxy)phosphoryl)oxy)tetrahydrofuran-2-yl)methoxy)(phenoxy)phosphoryl)-amino)propanoate], the IC50 lay within 0.1 to 5 µM in the test on MCF-7; 5 to 15 µM with HepG2 [1]; 15 to 100 µM with CCRF-CEM; 15 to 100 µM in the test on MOLT-4; 15 to 100 µM in the test with HL-60 [2]; 15 to 100 µM with KG-1 [3]. Further, the IC50 in the test on K562 [4] was in the range of 15 to 100 µM.
